Consider 53 compounds from US20110077237A1, “KINASE INHIBITORS” (VERTEX PHARMACEUTICALS INCORPORATED, priority 2007, published 2011).

Holding throughout (format): biochemical
One assay concerns the target PKC theta (Homo sapiens, UniProt Q04759). In words: PKC Theta I coupled-enzyme (NADH absorbance) kinase assay. To be noted: 18 nM PKC theta, 240 μM ATP, 30° C., absorbance at 340 nm. On the procedure: An assay buffer solution was prepared which consisted of 100 mM HEPES (pH 7.5), 10 mM MgCl2, 25 mM NaCl, 0.1 mM EDTA and 0.01% Brij. […] To 60 μL of this enzyme buffer, in a 384 well plate, was added 2 μL of VRT stock solution in DMSO. The mixture was allowed to equilibrate for 10 mins at 30° C. […] Ki values were calculated from initial rate data by non-linear regression using the Prism software package (Prism 4.0a, Graphpad Software, San Diego, Calif.).

Another assay concerns the target PKC delta kinase (Homo sapiens, UniProt Q05655). In words: PKC Delta coupled-enzyme kinase assay. Particulars: 46 nM PKC delta, 150 μM ATP, 30° C.; read-out: Ki PKC delta. On the procedure: An assay buffer solution was prepared which consisted of 100 mM HEPES (pH 7.5), 10 mM MgCl2, 25 mM NaCl, 0.1 mM EDTA and 0.01% Brij. […] To 16 μL of this enzyme buffer, in a 384 well plate, was added 1 μL of VRT stock solution in DMSO. The mixture was allowed to equilibrate for 10 mins at 30° C. […] Ki values were calculated from initial rate data by non-linear regression using the Prism software package (Prism 4.0a, Graphpad Software, San Diego, Calif.).

For a further assay, the target named is PKC alpha kinase (Homo sapiens, UniProt P17252). Briefly: PKC Alpha coupled-enzyme kinase assay. To be noted: 4.5 nM PKC alpha, 130 μM ATP, 30° C. On the procedure: An assay buffer solution was prepared which consisted of 100 mM HEPES (pH 7.5), 10 mM MgCl2, 25 mM NaCl, 0.1 mM EDTA, 100 μM CaCl2 and 0.01% Brij. […] To 16 μL of this enzyme buffer, in a 384 well plate, was added 1 μL of VRT stock solution in DMSO. The mixture was allowed to equilibrate for 10 mins at 30° C. The enzyme reaction was initiated by the addition of 16 μL stock ATP solution prepared in assay buffer to a final assay concentration of 130 μM. Initial rate data was determined from the rate of change of absorbance at 340 nm (corresponding to stoichiometric consumption of NADH) using a Molecular Devices Spectramax plate reader (Sunnyvale, Calif.) over 15 mins at 30° C. For each Ki determination 12 data points covering the VRT concentration range of 0-20 μM were obtained in duplicate (DMSO stocks were prepared from an initial 10 mM VRT stock with subsequent 1:2 serial dilutions). Ki values were calculated from initial rate data by non-linear regression using the Prism software package (Prism 4.0a, Graphpad Software, San Diego, Calif.).

The structures appear in SMILES notation.

PKC theta, sequence (Q04759 whole entry): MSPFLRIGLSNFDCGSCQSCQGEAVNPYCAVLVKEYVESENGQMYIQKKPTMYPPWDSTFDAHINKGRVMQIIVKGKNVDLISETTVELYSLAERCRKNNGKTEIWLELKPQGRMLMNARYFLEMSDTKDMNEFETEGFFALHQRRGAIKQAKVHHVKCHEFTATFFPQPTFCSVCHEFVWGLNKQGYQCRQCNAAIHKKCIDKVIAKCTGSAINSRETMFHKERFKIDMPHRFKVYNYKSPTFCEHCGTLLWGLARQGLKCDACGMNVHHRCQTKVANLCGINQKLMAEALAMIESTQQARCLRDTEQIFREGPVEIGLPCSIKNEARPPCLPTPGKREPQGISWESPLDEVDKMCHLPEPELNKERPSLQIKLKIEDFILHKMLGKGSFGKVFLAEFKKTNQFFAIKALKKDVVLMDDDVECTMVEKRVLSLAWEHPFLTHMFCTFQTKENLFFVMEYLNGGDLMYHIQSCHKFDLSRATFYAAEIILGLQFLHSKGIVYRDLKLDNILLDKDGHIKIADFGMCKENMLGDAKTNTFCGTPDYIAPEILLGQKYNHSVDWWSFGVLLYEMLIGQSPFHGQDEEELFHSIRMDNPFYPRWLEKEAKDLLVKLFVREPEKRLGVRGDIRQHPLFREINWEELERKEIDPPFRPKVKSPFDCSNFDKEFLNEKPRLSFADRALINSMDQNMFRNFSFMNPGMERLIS
PKC delta kinase, sequence (Q05655 whole entry): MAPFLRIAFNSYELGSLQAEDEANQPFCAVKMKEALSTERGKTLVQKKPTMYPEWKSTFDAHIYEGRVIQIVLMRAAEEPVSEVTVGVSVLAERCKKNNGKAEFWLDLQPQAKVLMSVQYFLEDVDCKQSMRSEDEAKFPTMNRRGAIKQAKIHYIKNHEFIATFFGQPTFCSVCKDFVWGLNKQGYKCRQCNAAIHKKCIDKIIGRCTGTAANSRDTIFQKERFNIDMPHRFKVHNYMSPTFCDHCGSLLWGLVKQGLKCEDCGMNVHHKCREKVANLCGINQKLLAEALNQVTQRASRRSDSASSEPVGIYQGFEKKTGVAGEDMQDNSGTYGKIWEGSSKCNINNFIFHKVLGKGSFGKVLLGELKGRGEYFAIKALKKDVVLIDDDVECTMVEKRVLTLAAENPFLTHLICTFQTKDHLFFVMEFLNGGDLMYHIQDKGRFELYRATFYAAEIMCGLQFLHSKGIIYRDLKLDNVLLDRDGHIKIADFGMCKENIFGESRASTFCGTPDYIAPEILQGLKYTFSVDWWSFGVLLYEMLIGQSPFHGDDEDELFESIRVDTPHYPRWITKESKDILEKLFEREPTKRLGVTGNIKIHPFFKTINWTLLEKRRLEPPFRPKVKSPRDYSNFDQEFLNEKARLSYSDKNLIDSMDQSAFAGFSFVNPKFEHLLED

For `Nc1ncc(-c2ccccc2CO)cc1C(=O)c1cccc(N2CCNC(c3ccccc3)C2)n1` (centres unmarked) [compound 281], the Ki on PKC theta was in the range of 500 to 2800 nM.
In the case of `Nc1ncc(Br)cc1C(=O)c1cccc(N2CCNC(=O)C2)n1` [compound 196], the Ki on PKC theta was 500 to 2800 nM.
Compound `Nc1ncccc1C(=O)c1cccc(C2CCNCC2)n1` [compound 257] registered a Ki at PKC theta of 500 to 2800 nM.
`Nc1ncc(Br)cc1C(=O)c1cccc(NC[C@H]2CCCC[C@@H]2O)n1` [compound 174] showed a Ki at PKC theta of 500 to 2800 nM.
`Nc1ncccc1C(=O)c1cccc(N2CCC(NC(=O)CC(F)(F)F)CC2)n1` [compound 129] had a Ki at PKC theta of 500 to 2800 nM.
On PKC theta, `Nc1ncccc1C(=O)c1cc(N2CCNCC2)ncc1F` [compound 319] came in with a Ki of 500 to 2800 nM.
Same read-out and setting: the value for `Nc1ncccc1C(=O)c1cc(N2CCCNCC2)cs1` [compound 84] was 500 to 2800 nM; that for `Nc1ncccc1C(=O)c1cccc(N2CCN(C(=O)CC(F)(F)F)CC2)n1` [compound 224] was 500 to 2800 nM; that for `Nc1ncc(Br)cc1C(=O)c1cccc(N2CC[C@H](O)C2)n1` [compound 123] was 500 to 2800 nM.
As for `N#CCCN1CCN(c2cccc(C(=O)c3cc(Br)cnc3N)n2)CC1` [compound 96], the Ki on PKC theta was 500 to 2800 nM.
At PKC theta, `Nc1ncccc1C(=O)c1ccnc(N2CCCNCC2)n1` [compound 111] displayed a Ki of 500 to 2800 nM.
Take `Nc1ncccc1C(=O)c1csc(N2CCCNCC2)n1` [compound 125]: the Ki on PKC theta is 500 to 2800 nM.
For `Nc1ncccc1C(=O)c1cccc(N2CCCN(C(=O)C3CCCCC3)CC2)n1` [compound 38], at PKC theta, the Ki fell in the range of 500 to 2800 nM.
In turn, `Nc1ncc(Br)cc1C(=O)c1cccc(N2CCCC(c3ccccc3)C2)n1` (centres unmarked) [compound 145] showed a Ki at PKC theta of 500 to 2800 nM.
In the case of `Nc1ncccc1C(=O)c1cccc(N2CCN[C@@H](Cc3ccccc3)C2)n1` [compound 215], the Ki at PKC theta lay in the range of 500 to 2800 nM.
`Nc1ncccc1C(=O)c1nc(N2CCCN(C(=O)CC(F)(F)F)CC2)cs1` [compound 95] yielded a Ki on PKC theta of 500 to 2800 nM.
As to `CN(Cc1ccccc1)C(=O)c1ccc(C(=O)c2cccnc2N)s1` [compound 103], the Ki at PKC theta is 500 to 2800 nM.
On to `C=Cc1cnc(N)c(C(=O)c2cccc(N3CCCN(C(=O)OC(C)(C)C)CC3)n2)c1` [compound 60], for which the Ki on PKC theta lay within 500 to 2800 nM.
Same read-out and setting: the value for `CC(C)(O)C#Cc1cnc(N)c(C(=O)c2cccc(N3CCCNCC3)n2)c1` [compound 147] was 500 to 2800 nM.
Take `Nc1ncc(-c2ccccc2O)cc1C(=O)c1cccc(N2CCNC(c3ccccc3)C2)n1` (centres unmarked) [compound 259]: at PKC theta, the Ki was in the range of 500 to 2800 nM.
At PKC theta, `Nc1ncccc1C(=O)c1cccc(N2CCCN(C(=O)Oc3ccccc3)CC2)n1` [compound 52] gave a Ki of 500 to 2800 nM.
Turning to `Cc1ccc(C(=O)c2cccnc2N)nc1N1CCNCC1` [compound 236], the Ki on PKC theta lay within 500 to 2800 nM.
Turning to `Nc1ncccc1C(=O)c1ccc(Cl)c(N2CCCNCC2)n1` [compound 242], the Ki at PKC theta lay in the range of 500 to 2800 nM.
As for `Nc1ncccc1C(=O)c1cccc(N2CCC(N)C2)n1` (centres unmarked) [compound 85], at PKC theta, the Ki lay within 500 to 2800 nM.
For `Nc1ncc(C2=CCCCC2)cc1C(=O)c1cccc(N2CCCNCC2)n1` [compound 185], at PKC theta, the Ki lay in the range of 500 to 2800 nM.
At PKC theta, `CN(C)CCN(Cc1ccccc1)c1cccc(C(=O)c2cc(Br)cnc2N)n1` [compound 143] displayed a Ki of 500 to 2800 nM.
With `Cc1ccccc1C1CN(c2cccc(C(=O)c3cccnc3N)n2)CCN1` (centres unmarked) [compound 339], the Ki on PKC delta kinase was 50 to 500 nM; on PKC alpha kinase, 500 to 2800 nM.
Take `Nc1ncccc1C(=O)c1cccc(N2CCN[C@H](Cc3ccccc3)C2)n1` [compound 250]: at PKC theta, the Ki is 500 to 2800 nM.
Take `CC[C@@H]1CNCCN1c1cccc(C(=O)c2cccnc2N)n1` [compound 243]: the Ki was 50 to 500 nM at PKC delta kinase and 500 to 2800 nM on PKC alpha kinase.
As for `CC(F)(F)c1ccc(N2CCNC(c3ccccc3)C2)nc1C(=O)c1cccnc1N` (centres unmarked) [compound 355], the Ki at PKC delta kinase lay within 50 to 500 nM; on PKC alpha kinase, 500 to 2800 nM.
As to `Nc1ncc(Br)cc1C(=O)c1cccc(NCCCN2CCCC2)n1` [compound 177], at PKC theta, the Ki lay within 500 to 2800 nM.
`CC(C)N(Cc1ccccc1)C(=O)c1ccc(C(=O)c2cccnc2N)s1` [compound 48] gave a Ki at PKC theta of 500 to 2800 nM.
In the case of `CC(C)=Cc1cnc(N)c(C(=O)c2cccc(N3CCCNCC3)n2)c1` [compound 246], the Ki at PKC delta kinase was 50 to 500 nM; at PKC alpha kinase it was under 50 nM.
Turning to `C=Cc1cnc(N)c(C(=O)c2nc(N3CCNC(c4ccccc4)C3)ccc2Cl)c1` (centres unmarked) [compound 332], the Ki was 50 to 500 nM at PKC delta kinase and under 50 nM on PKC alpha kinase.
For `CC(C)[C@H](N)CNc1ccc(C(F)(F)F)c(C(=O)c2cccnc2N)n1` [compound 395] the same measures were 500 to 2800 nM and 500 to 2800 nM.
With `COc1ccc(C2CN(c3cccc(C(=O)c4cccnc4N)n3)CCN2)cc1` (centres unmarked) [compound 310], the Ki on PKC delta kinase lay in the range of 50 to 500 nM; on PKC alpha kinase, 500 to 2800 nM.
At PKC theta, `Nc1ncc(NCc2ccccc2)cc1C(=O)c1cccc(N2CCCNCC2)n1` [compound 190] yielded a Ki of 500 to 2800 nM.
With `CC(C)C[C@H]1CN(c2ccnc(C(=O)c3cccnc3N)n2)CCN1` [compound 345], the figures for the Ki on PKC delta kinase and at PKC alpha kinase were over 2800 nM and 500 to 2800 nM, respectively.
`Nc1ncc(Br)cc1C(=O)c1cccc(N2CCN(C3CCCC3)CC2)n1` [compound 144] gave a Ki at PKC theta of 500 to 2800 nM.
As for `C[C@@H]1CNC[C@H](C)N1c1cccc(C(=O)c2cccnc2N)n1` [compound 234], on PKC theta, the Ki was in the range of 500 to 2800 nM.
For `Nc1ncc(Br)cc1C(=O)c1cccc(N2CCN(CCO)CC2)n1` [compound 97], the Ki on PKC theta is 500 to 2800 nM.
In turn, `Nc1ncc(Br)cc1C(=O)c1cccc(NCCN2CCCCC2)n1` [compound 141] displayed a Ki on PKC theta of 500 to 2800 nM.
The same measure, in the same setting: the value for `Nc1ncccc1C(=O)c1cccc(N2CCCN(Cc3ccccc3)CC2)n1` [compound 160] was 500 to 2800 nM.
On to `Cc1sc(N2CCCNCC2)nc1C(=O)c1cccnc1N` [compound 109], for which the Ki on PKC delta kinase and at PKC alpha kinase was 500 to 2800 nM each time.
On to `CC(C)[C@H](N)COc1ccc(C(F)(F)F)c(C(=O)c2cccnc2N)n1` [compound 400], for which the Ki at PKC delta kinase and on PKC alpha kinase was 500 to 2800 nM each time.
Take `Nc1ncccc1C(=O)c1nc(N2CCNC(c3ccccc3)C2)ccc1OC(F)F` (centres unmarked) [compound 360]: the Ki was in the range of 50 to 500 nM on PKC delta kinase and 500 to 2800 nM on PKC alpha kinase.
On to `Nc1ncc(Br)cc1C(=O)c1nc(N2CCNC(c3ccccc3)C2)ccc1C(F)(F)F` (centres unmarked) [compound 326], for which the Ki is 50 to 500 nM at PKC delta kinase and under 50 nM on PKC alpha kinase.
Take `Cc1cccc(C2CN(c3ccc(C(F)(F)F)c(C(=O)c4cccnc4N)n3)CCN2)c1` (centres unmarked) [compound 392]: the Ki on PKC delta kinase was 50 to 500 nM; at PKC alpha kinase it was under 50 nM.
In the same order, the values of `Nc1ncccc1C(=O)c1nc(NCC2CCNC2)ccc1C(F)(F)F` (centres unmarked) [compound 377] are 50 to 500 nM and 500 to 2800 nM.
As for `CCc1ccc(N2CCNCC2)nc1C(=O)c1cccnc1N` [compound 348], the figures for the Ki at PKC delta kinase and on PKC alpha kinase were 50 to 500 nM and over 2800 nM, respectively.
With `Nc1ncccc1C(=O)c1nccc(N2CCNC(c3ccccc3)C2)n1` (centres unmarked) [compound 341], the Ki at PKC delta kinase and at PKC alpha kinase was over 2800 nM in each case.
`CC(C)[C@H]1CN(c2ccc(C(F)(F)F)c(C(=O)c3cccnc3N)n2)CCN1` [compound 338]: the Ki at PKC delta kinase is 50 to 500 nM; at PKC alpha kinase it was 500 to 2800 nM.
As for `Nc1ncccc1C(=O)c1nc(Cl)cnc1N1CCNCC1` [compound 340], the Ki at PKC delta kinase and on PKC alpha kinase was over 2800 nM throughout.
